Measured values: the NIST ThermoML archive (doi:10.1007/s10765-005-8089-2)

Experiment: xn = mol fraction of the nth substance listed
Conditions: Liquid, Falling or rolling sphere viscometry

Cc1ccccc1 [toluene] + CCO
viscosity [mPa·s]
Conditions | x2 = 0.125 | x2 = 0.25 | x2 = 0.375 | x2 = 0.5 | x2 = 0.625 | x2 = 0.75 | x2 = 0.875
313.15 K, 100000 kPa | – | – | – | – | 1.058 | 1.145 | 1.255
333.15 K, 100 kPa | 0.37 | 0.373 | 0.385 | 0.405 | 0.431 | 0.468 | 0.523
333.15 K, 20000 kPa | 0.433 | 0.437 | 0.45 | 0.47 | 0.501 | 0.544 | 0.603
333.15 K, 40000 kPa | 0.499 | 0.503 | 0.518 | 0.54 | 0.573 | 0.621 | 0.684
333.15 K, 60000 kPa | 0.568 | 0.571 | 0.588 | 0.611 | 0.647 | 0.697 | 0.763
333.15 K, 80000 kPa | 0.639 | 0.643 | 0.662 | 0.686 | 0.724 | 0.776 | 0.844
333.15 K, 100000 kPa | 0.714 | 0.718 | 0.739 | 0.763 | 0.804 | 0.856 | 0.926
353.15 K, 100 kPa | 0.306 | – | – | – | – | – | –
353.15 K, 20000 kPa | 0.358 | 0.356 | 0.361 | 0.372 | 0.39 | 0.415 | 0.453
353.15 K, 40000 kPa | 0.412 | 0.411 | 0.417 | 0.427 | 0.446 | 0.476 | 0.516
353.15 K, 60000 kPa | 0.468 | 0.467 | 0.474 | 0.484 | 0.504 | 0.536 | 0.577
353.15 K, 80000 kPa | 0.526 | 0.525 | 0.532 | 0.541 | 0.564 | 0.597 | 0.64
353.15 K, 100000 kPa | 0.588 | 0.586 | 0.593 | 0.601 | 0.625 | 0.66 | 0.703
